In patent US20230117470A1, “SUBSTITUTED PYRAZOLE COMPOUNDS AS TOLL RECEPTOR INHIBITORS” (BRISTOL-MYERS SQUIBB COMPANY, priority 2019, published 2023) one finds IC50 data, which are given here for 18 compounds.

As a reminder, the IC50 is the concentration at which inhibition is half-maximal.

Counter-ions that a name gives are not always drawn.

What all share (type): cell-based
The target of test [1] is T1, human TLR7 (Homo sapiens, UniProt Q9NYK1).
T1 construct: host or cells: HEK-Blue cells
T1 sequence (Q9NYK1 27-1049): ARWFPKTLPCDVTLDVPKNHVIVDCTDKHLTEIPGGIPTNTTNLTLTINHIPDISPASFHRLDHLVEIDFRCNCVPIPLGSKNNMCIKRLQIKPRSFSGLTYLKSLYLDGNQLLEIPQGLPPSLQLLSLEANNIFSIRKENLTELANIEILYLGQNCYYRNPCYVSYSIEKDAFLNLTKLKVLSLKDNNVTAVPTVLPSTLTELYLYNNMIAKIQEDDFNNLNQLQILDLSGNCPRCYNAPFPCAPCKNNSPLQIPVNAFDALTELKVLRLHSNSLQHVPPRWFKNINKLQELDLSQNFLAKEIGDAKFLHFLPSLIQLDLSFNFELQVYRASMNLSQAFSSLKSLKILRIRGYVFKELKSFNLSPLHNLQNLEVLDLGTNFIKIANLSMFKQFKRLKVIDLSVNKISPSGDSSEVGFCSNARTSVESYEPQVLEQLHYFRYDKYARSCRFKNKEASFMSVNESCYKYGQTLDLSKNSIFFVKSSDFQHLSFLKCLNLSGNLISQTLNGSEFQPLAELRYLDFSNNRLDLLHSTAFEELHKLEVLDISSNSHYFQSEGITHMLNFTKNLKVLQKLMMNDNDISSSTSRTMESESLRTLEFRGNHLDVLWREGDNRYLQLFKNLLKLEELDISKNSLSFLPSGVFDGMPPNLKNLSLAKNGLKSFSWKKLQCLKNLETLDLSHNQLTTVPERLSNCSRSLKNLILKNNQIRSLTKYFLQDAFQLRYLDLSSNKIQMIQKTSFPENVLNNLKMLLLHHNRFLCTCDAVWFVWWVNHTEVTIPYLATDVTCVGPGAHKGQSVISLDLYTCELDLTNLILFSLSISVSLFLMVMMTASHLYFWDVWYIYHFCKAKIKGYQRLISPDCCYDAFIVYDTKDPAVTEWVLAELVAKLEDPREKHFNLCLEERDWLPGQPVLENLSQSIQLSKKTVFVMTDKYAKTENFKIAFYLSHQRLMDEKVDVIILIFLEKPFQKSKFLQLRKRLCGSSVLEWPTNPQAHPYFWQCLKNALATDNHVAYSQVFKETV
Briefly: TLR7 inhibition reporter assay (HEK-Blue cells, SEAP reporter, gardiquimod stimulation). The following applies: HEK-Blue cells overexpressing human TLR7, SEAP reporter, gardiquimod 7.5 μM. As for the experimental part: (§1) TLR7/8/9 Inhibition Reporter Assays
(§2) HEK-Blue™-cells (Invivogen) overexpressing human TLR7, TLR8 or TLR9 receptors were used for screening inhibitors of these receptors using an inducible SEAP (secreted embryonic alkaline phosphatase) reporter gene under the control of the IFN-β minimal promoter fused to five NF-κB and AP-1-binding sites. Briefly, cells are seeded into Greiner 384 well plates (15000 cells per well for TLR7, 20,000 for TLR8 and 25,000 for TLR9) and then treated with test compounds in DMSO to yield a final dose response concentration range of 0.05 nM-50 μM. After a 30 minute compound pre-treatment at room temperature, the cells are then stimulated with a TLR7 ligand (gardiquimod at a final concentration of 7.5 μM), TLR8 ligand (R848 at a final concentration of 15.9 μM) or TLR9 ligand (ODN2006 at a final concentration of 5 nM) to activate NF-κB and AP-1 which induce the production of SLA After a 22 hour incubation at 37° C., […], SEAP levels are determined with the addition of HEK-Blue™ Detection reagent (Invivogen), a cell culture medium that allows for detection of SLAP, according to manufacturer's specifications. The percent inhibition is determined as the % reduction in the HEK-Blue signal present in wells treated with agonist plus DMSO alone compared to wells treated with a known inhibitor.
In general terms: Reporter assays use an easily measured gene product as a stand-in for the process of interest.

Test [2] concerns the target T2, human TLR8 (Homo sapiens, UniProt Q9NR97).
T2 construct: host or cells: HEK-Blue cells
T2 sequence (Q9NR97 27-1041): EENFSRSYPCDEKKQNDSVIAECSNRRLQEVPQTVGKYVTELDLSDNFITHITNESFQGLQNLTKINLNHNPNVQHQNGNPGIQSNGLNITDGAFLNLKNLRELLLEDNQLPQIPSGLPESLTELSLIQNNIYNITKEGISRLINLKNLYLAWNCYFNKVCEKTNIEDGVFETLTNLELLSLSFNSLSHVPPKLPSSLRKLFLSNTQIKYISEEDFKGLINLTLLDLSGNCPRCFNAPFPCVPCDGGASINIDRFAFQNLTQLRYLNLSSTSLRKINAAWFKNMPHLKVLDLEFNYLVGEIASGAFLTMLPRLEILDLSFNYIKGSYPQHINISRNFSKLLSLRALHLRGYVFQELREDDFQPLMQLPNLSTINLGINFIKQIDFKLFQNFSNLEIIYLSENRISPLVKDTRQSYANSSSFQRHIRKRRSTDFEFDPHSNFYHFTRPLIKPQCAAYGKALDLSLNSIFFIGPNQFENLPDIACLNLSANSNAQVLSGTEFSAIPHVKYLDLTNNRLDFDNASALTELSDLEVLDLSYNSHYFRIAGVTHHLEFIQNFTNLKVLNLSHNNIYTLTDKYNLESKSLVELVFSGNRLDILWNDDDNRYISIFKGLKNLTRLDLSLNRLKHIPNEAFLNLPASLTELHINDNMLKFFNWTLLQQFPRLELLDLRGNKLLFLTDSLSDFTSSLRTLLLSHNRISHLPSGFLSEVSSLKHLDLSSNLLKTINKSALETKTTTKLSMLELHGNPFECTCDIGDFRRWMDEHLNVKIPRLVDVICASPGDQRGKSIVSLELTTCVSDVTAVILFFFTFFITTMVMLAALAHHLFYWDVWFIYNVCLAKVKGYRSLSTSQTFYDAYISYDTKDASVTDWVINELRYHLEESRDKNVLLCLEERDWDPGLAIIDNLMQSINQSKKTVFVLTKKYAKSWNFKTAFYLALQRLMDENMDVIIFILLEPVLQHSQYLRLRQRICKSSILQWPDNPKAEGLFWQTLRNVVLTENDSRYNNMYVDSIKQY
Nature of the test: TLR8 inhibition reporter assay (HEK-Blue cells, SEAP reporter, R848 stimulation). The conditions noted are these: HEK-Blue cells overexpressing human TLR8, SEAP reporter, R848 15.9 μM. The protocol: as §1, §2

In test [3] the target is T3, human TLR9 (Homo sapiens, UniProt Q9NR96).
T3 construct: host or cells: HEK-Blue cells
T3 sequence (Q9NR96 26-1032): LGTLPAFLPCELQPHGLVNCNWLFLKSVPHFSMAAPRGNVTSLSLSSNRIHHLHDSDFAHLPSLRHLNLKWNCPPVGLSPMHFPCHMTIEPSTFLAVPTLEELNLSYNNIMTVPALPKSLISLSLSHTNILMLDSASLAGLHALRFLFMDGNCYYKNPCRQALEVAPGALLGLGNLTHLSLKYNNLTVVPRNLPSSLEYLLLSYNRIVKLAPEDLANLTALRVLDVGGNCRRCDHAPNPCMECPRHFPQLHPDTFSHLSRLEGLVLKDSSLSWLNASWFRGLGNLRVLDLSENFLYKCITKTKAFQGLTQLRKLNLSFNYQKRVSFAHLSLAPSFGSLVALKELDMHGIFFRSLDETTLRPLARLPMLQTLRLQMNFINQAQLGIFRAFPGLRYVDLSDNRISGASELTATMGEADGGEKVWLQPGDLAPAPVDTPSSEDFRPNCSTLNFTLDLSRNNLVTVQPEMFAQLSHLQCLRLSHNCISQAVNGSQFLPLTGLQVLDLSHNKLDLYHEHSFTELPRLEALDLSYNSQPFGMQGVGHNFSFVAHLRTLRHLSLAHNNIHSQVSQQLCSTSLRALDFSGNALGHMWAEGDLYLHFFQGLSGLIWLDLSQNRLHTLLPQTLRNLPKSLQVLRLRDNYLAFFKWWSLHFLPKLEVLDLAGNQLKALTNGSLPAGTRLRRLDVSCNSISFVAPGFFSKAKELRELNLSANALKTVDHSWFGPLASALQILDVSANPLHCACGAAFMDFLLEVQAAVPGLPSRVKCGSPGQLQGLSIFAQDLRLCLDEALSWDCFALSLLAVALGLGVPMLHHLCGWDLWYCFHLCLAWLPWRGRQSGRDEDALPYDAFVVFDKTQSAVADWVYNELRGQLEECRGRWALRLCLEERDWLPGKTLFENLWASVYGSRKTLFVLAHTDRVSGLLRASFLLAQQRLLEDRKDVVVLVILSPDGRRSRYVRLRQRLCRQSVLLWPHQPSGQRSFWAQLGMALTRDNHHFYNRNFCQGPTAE
Briefly: TLR9 inhibition reporter assay (HEK-Blue cells, SEAP reporter, ODN2006 stimulation). The following applies: HEK-Blue cells overexpressing human TLR9, SEAP reporter, ODN2006 5 nM. The protocol:
as §1, §2

With `COc1cc(-c2[nH]nc(-c3ccc(C4CCN(CC(F)(F)F)CC4)cc3)c2C(C)C)cn2ncnc12` [Example 320], the IC50 in test [1] was 4.38 nM; in test [2], 1.3 nM; in test [3], 21900 nM.
For `Cc1cc(-c2[nH]nc(C(=O)N[C@@H]3CCNC3)c2C(C)C)cn2ncnc12` [Example 50], in that order: 1.27 nM, 2.74 nM and 17300 nM.
As to `Cc1cc(-c2[nH]nc(C(=O)NC3CCN(C(C)C)CC3)c2C(C)C)cn2ccnc12` [Example 37], the values for the IC50 in test [1], in test [2] and in test [3] were 12.1 nM, 27 nM and 27900 nM, respectively.
Take `Cc1cc(-c2[nH]nc(C(=O)N3CC(N(C)C)C3)c2C(C)C)cn2ncnc12` [Example 21]: the IC50 in test [1] is 6.89 nM; in test [2], 39 nM; in test [3] it was over 50000 nM.
Taken in the same sequence, the figures for `Cc1cc(-c2[nH]nc(C(=O)N[C@H]3CC[C@@H](NCCCC(F)(F)F)CC3)c2C(C)C)cn2ncnc12` [Example 88] were 0.81 nM, 1.84 nM and 4450 nM.
Taken in the same sequence, the figures for `Cc1cc(-c2[nH]nc(C(=O)N3CCCN(C)CC3)c2C(C)C)cn2ncnc12` [Example 23] were 1.27 nM, 1.01 nM and 4770 nM.
Turning to `CCN1CCC(c2ccc(-c3n[nH]c(-c4cc(OC)c5ncnn5c4)c3C(C)C)cc2)CC1` [Example 315], the IC50 is 5.22 nM in test [1], 20.2 nM in test [2] and over 50000 nM in test [3].
For `CC(C)c1c(C(=O)NC2CCN(C(C)C)CC2)n[nH]c1-c1ccnc2[nH]ncc12` [Example 35], the IC50 in test [1] worked out at 2.77 nM; in test [2] it was 0.79 nM; in test [3], 4350 nM.
For `CC(C)c1c(C(=O)NC2CCN(C(C)C)CC2)n[nH]c1-c1cn(C)c2ncccc12` [Example 42], in that order: 2.99 nM, 6.77 nM and 19000 nM.
For `Cc1cc(-c2[nH]nc(CNC3CCNCC3)c2C(C)C)cn2ncnc12` [Example 187], in that order: 10.4 nM, 4.25 nM and 8720 nM.
Consider `Cc1cc(-c2[nH]nc(-c3ccc(C4CCN(C)CC4)nc3)c2C(C)C)cn2ncnc12` [Example 359], for which the results for the IC50 in test [1], in test [2] and in test [3] were 1120 nM, over 3130 nM and over 50000 nM, respectively.
Turning to `CCN(CC)CC(=O)N1CCC(c2cnc(-c3n[nH]c(-c4cc(OC)c5ncnn5c4)c3C(C)C)cn2)CC1` [Example 404], the IC50 in test [1] is 43.6 nM; in test [2], 124 nM; in test [3] it was over 50000 nM.
For the compound `Cc1cc(-c2[nH]nc(-c3ccc(C4CN(C)C4)cc3)c2C(C)C)cn2ncnc12` [Example 324, 6-(4-isopropyl-3-(4-(1-methylazetidin-3-yl)phenyl)-1H-pyrazol-5-yl)-8-methyl-[1,2,4]triazolo[1,5-a]pyridine], the IC50 in test [1] came to 6.96 nM; in test [2], 2.26 nM; in test [3] it was 6240 nM.
Taken in the same sequence, the figures for `Cc1cc(-c2[nH]nc(-c3cnc(C4CCNCC4)nc3)c2C(C)C)cn2ncnc12` [Example 343] were 24.1 nM, 3.3 nM and over 50000 nM.
Turning to `CCC(CC)N[C@H]1CC[C@@H](NC(=O)c2n[nH]c(-c3cc(C)c4ncnn4c3)c2C(C)C)CC1` [Example 100], the IC50 turned out to be 78.9 nM in test [1], 114 nM in test [2] and 6400 nM in test [3].
For `Cc1cc(-c2[nH]nc(-c3ccc4c(c3)CCNC4)c2C(C)C)cn2ncnc12` [Example 213, 6-(4-isopropyl-5-(8-methyl-[1,2,4]triazolo[1,5-a]pyridin-6-yl)-1H-pyrazol-3-yl)-1,2,3,4-tetrahydroisoquinoline, HCl], in that order: 4.64 nM, 3.41 nM and 25500 nM.
Consider `Cc1cc(-c2[nH]nc(C(=O)NC3CN(C)C3)c2C(C)C)cn2ncnc12` [Example 156], for which the IC50 in test [1] came out at 1.72 nM; in test [2] it was 0.09 nM; in test [3], 10900 nM.
As for `Cc1cc(-c2[nH]nc(C(=O)NCC3CCCCN3)c2C(C)C)cn2ncnc12` (centres unmarked) [Example 56], the IC50 in test [1] came out at 4.36 nM; in test [2], 3.43 nM.
